According to patent US20240391875A1, “ISOQUINOLINONES AND QUINOLINONES AS MODULATORS OF POLRMT” (Pretzel Therapeutics, Inc., priority 2021, published 2024):

Molecular target: POLRMT (Homo sapiens, UniProt O00411)
Test: homogeneous TR-FRET assay of mitochondrial transcription (inhibition of POLRMT)
Type: biochemical
Conditions: isoquinolinone compounds (Table 1)
In short: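 Recombinant POLRMT (7.5 nM) with TFB2M, TFAM and linearized LSP plasmid template, 500 μM NTPs, pH 7.5 Mg buffer; 60 min at 37° C. Reaction stopped with EDTA/high-salt buffer, 407 bp RNA transcript detected by hybridized ATTO647/Europium-cryptate probe pair; TR-FRET 665/620 nm ratio taken as transcript yield.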

Chain of POLRMT (O00411 42-1230): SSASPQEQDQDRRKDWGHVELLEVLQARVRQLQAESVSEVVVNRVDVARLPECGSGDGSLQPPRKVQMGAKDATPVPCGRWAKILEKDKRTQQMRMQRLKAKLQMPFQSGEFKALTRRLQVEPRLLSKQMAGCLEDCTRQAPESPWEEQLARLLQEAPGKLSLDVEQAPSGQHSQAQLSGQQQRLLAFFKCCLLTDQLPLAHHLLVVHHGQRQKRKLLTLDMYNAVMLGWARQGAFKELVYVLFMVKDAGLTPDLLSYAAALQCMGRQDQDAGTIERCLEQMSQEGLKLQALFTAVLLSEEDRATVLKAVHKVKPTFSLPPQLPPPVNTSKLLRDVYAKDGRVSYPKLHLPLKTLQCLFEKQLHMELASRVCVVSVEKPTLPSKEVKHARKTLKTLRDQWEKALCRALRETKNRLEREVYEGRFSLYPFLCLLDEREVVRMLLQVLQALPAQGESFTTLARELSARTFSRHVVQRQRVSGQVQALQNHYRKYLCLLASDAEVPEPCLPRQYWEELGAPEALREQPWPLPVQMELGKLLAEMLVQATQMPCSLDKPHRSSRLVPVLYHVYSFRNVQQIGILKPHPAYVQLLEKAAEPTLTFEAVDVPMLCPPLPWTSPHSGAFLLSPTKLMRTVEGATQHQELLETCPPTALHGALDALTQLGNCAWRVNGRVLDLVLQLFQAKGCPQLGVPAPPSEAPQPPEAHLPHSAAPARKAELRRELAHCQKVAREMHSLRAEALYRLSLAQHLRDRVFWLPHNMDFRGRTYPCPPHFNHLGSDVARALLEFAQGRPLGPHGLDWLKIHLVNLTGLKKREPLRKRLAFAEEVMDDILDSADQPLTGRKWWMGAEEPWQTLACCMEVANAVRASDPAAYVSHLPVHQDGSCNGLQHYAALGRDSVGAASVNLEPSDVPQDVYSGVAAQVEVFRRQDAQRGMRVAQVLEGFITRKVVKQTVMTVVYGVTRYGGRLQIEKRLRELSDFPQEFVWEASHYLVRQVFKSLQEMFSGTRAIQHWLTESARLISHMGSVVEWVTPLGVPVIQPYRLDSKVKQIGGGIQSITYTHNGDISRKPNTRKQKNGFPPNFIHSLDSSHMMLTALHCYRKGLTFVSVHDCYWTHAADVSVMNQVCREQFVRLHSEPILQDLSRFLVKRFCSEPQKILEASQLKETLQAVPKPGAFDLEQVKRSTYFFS

Structure (SMILES) | IC50
C[C@@H](Oc1ccc2c(-c3ccc(F)cc3Cl)c[nH]c(=O)c2c1)C(=O)N1CCS(=O)(=O)CC1 [Example 101, (R)-4-(2-chloro-4-fluorophenyl)-7-((1-(1,1-dioxidothiomorpholino)-1-oxopropan-2-yl)oxy)isoquinolin-1(2H)-one] | 2000 nM
COC[C@@H]1COCCN1C(=O)[C@@H](C)Oc1ccc2c(-c3ccc(F)cc3Cl)c[nH]c(=O)c2c1 [Example 102, 4-(2-chloro-4-fluorophenyl)-7-(((R)-1-((R)-3-(methoxymethyl)morpholino)-1-oxopropan-2-yl)oxy)isoquinolin-1(2H)-one] | 700 nM
COC[C@H]1COCCN1C(=O)[C@@H](C)Oc1ccc2c(-c3ccc(F)cc3Cl)c[nH]c(=O)c2c1 [Example 103, 4-(2-chloro-4-fluorophenyl)-7-(((R)-1-((S)-3-(methoxymethyl)morpholino)-1-oxopropan-2-yl)oxy)isoquinolin-1(2H)-one] | 700 nM
C[C@@H](Oc1ccc2c(-c3ccc(F)cc3Cl)c[nH]c(=O)c2c1)C(=O)N1CCO[C@@H](CO)C1 [Example 104, 4-(2-chloro-4-fluorophenyl)-7-(((R)-1-((R)-2-(hydroxymethyl)morpholino)-1-oxopropan-2-yl)oxy)isoquinolin-1(2H)-one] | 1000 nM
C[C@@H](Oc1ccc2c(-c3ccc(F)cc3Cl)c[nH]c(=O)c2c1)C(=O)N1CC2CCC(C1)O2 [Example 105, 7-(((2R)-1-(8-oxa-3-azabicyclo[3.2.1]octan-3-yl)-1-oxopropan-2-yl)oxy)-4-(2-chloro-4-fluorophenyl)isoquinolin-1(2H)-one] | 200 nM
C[C@@H](Oc1ccc2c(-c3ccc(F)cc3Cl)c[nH]c(=O)c2c1)C(=O)N1CCO[C@H](CO)C1 [Example 106, 4-(2-chloro-4-fluorophenyl)-7-(((R)-1-((S)-2-(hydroxymethyl)morpholino)-1-oxopropan-2-yl)oxy)isoquinolin-1(2H)-one] | 600 nM
C[C@@H](Oc1ccc2c(-c3ccc(F)cc3Cl)c[nH]c(=O)c2c1)C(=O)N1CCOCC1(C)C [Example 107, (R)-4-(2-chloro-4-fluorophenyl)-7-((1-(3,3-dimethylmorpholino)-1-oxopropan-2-yl)oxy)isoquinolin-1(2H)-one] | 200 nM
Cc1cc(F)cc(C)c1-c1c[nH]c(=O)c2cc(OCC(N)=O)ccc12 [Example 109, 2-((4-(4-fluoro-2,6-dimethylphenyl)-1-oxo-1,2-dihydroisoquinolin-7-yl)oxy)acetamide] | 7000 nM
Cc1cc(F)cc(C)c1-c1c[nH]c(=O)c2cc(OCC(=O)O)ccc12 [Example 110, 2-((4-(4-fluoro-2,6-dimethylphenyl)-1-oxo-1,2-dihydroisoquinolin-7-yl)oxy)acetic acid] | 25000 nM
Cc1cccc(C)c1-c1c[nH]c(=O)c2cc(O[C@H](C)C(=O)O)ccc12 [Example 111, (R)-2-((4-(2,6-dimethylphenyl)-1-oxo-1,2-dihydroisoquinolin-7-yl)oxy)propanoic acid] | 90 nM
C[C@@H](Oc1ccc2c(-c3ccc(F)cc3Cl)c[nH]c(=O)c2c1)C(=O)N1CCOC[C@H]1C(=O)O [Example 112, (S)-4-((R)-2-((4-(2-chloro-4-fluorophenyl)-1-oxo-1,2-dihydroisoquinolin-7-yl)oxy)propanoyl)morpholine-3-carboxylic acid] | 4000 nM
C[C@@H](Oc1ccc2c(-c3ccc(F)cc3Cl)c[nH]c(=O)c2c1)C(=O)N1CCOC[C@H]1CO [Example 113, 4-(2-chloro-4-fluorophenyl)-7-(((R)-1-((R)-3-(hydroxymethyl)morpholino)-1-oxopropan-2-yl)oxy)isoquinolin-1(2H)-one] | 600 nM
C[C@@H](Oc1ccc2c(-c3ccc(F)cc3Cl)c[nH]c(=O)c2c1)C(=O)N1CCOC[C@@H]1CO [Example 114, 4-(2-chloro-4-fluorophenyl)-7-(((R)-1-((S)-3-(hydroxymethyl)morpholino)-1-oxopropan-2-yl)oxy)isoquinolin-1(2H)-one] | 200 nM
C[C@@H](Oc1ccc2c(-c3ccc(F)cc3Cl)c[nH]c(=O)c2c1)C(=O)N1CCOC[C@@H]1C(=O)O [Example 115, (R)-4-((R)-2-((4-(2-chloro-4-fluorophenyl)-1-oxo-1,2-dihydroisoquinolin-7-yl)oxy)propanoyl)morpholine-3-carboxylic acid] | 400 nM

Further lines, results first:

IC50 | Structure (SMILES)
500 nM | CC(=O)N1CCN(C(=O)[C@@H](C)Oc2ccc3c(-c4ccc(F)cc4Cl)c[nH]c(=O)c3c2)CC1 [Example 116, (R)-7-((1-(4-acetylpiperazin-1-yl)-1-oxopropan-2-yl)oxy)-4-(2-chloro-4-fluorophenyl)isoquinolin-1(2H)-one]
500 nM | CCC(=O)N1CCN(C(=O)[C@@H](C)Oc2ccc3c(-c4ccc(F)cc4Cl)c[nH]c(=O)c3c2)CC1 [Example 117, (R)-4-(2-chloro-4-fluorophenyl)-7-((1-oxo-1-(4-propionylpiperazin-1-yl)propan-2-yl)oxy)isoquinolin-1(2H)-one]
400 nM | C[C@@H](Oc1ccc2c(-c3ccc(F)cc3Cl)c[nH]c(=O)c2c1)C(=O)N1CCN(CC(F)(F)F)CC1 [Example 118, (R)-4-(2-chloro-4-fluorophenyl)-7-((1-oxo-1-(4-(2,2,2-trifluoroethyl)piperazin-1-yl)propan-2-yl)oxy)isoquinolin-1(2H)-one]
700 nM | Cc1ccccc1-c1c[nH]c(=O)c2cc(OC(C)(C)C(=O)O)ccc12 [Example 119, 2-methyl-2-((1-oxo-4-(o-tolyl)-1,2-dihydroisoquinolin-7-yl)oxy)propanoic acid]
300 nM | C[C@@H](Oc1ccc2c(-c3ccc(F)cc3Cl)c[nH]c(=O)c2c1)C(=O)N1CCO[C@@H](C(=O)O)C1 [Example 120, (R)-4-((R)-2-((4-(2-chloro-4-fluorophenyl)-1-oxo-1,2-dihydroisoquinolin-7-yl)oxy)propanoyl)morpholine-2-carboxylic acid]
200 nM | C[C@@H](Oc1ccc2c(-c3ccc(F)cc3Cl)c[nH]c(=O)c2c1)C(=O)N1CCO[C@H](C(=O)O)C1 [Example 121, (S)-4-((R)-2-((4-(2-chloro-4-fluorophenyl)-1-oxo-1,2-dihydroisoquinolin-7-yl)oxy)propanoyl)morpholine-2-carboxylic acid]
300 nM | C[C@@H](Oc1ccc2c(-c3ccc(F)cc3Cl)c[nH]c(=O)c2c1)C(=O)N1CCOC[C@@H]1C(N)=O [Example 122, (R)-4-((R)-2-((4-(2-chloro-4-fluorophenyl)-1-oxo-1,2-dihydroisoquinolin-7-yl)oxy)propanoyl)morpholine-3-carboxamide]
300 nM | C[C@@H](Oc1ccc2c(-c3ccc(F)cc3Cl)c[nH]c(=O)c2c1)C(=O)N1CCOC[C@H]1C(N)=O [Example 123, (S)-4-((R)-2-((4-(2-chloro-4-fluorophenyl)-1-oxo-1,2-dihydroisoquinolin-7-yl)oxy)propanoyl)morpholine-3-carboxamide]
400 nM | CC[C@@H](Oc1ccc2c(-c3ccccc3C)c[nH]c(=O)c2c1)C(=O)O [Example 126, (R)-2-((1-oxo-4-(o-tolyl)-1,2-dihydroisoquinolin-7-yl)oxy)butanoic acid]
2000 nM | C[C@@H](Oc1ccc2c(-c3ccc(F)cc3Cl)c[nH]c(=O)c2c1)C(=O)N1CC2CC1CN2C (stereo partly drawn) [Example 127, 4-(2-chloro-4-fluorophenyl)-7-(((2R)-1-(5-methyl-2,5-diazabicyclo[2.2.1]heptan-2-yl)-1-oxopropan-2-yl)oxy)isoquinolin-1(2H)-one]
